Source: patent US20230406804A1, “PROTEIN KINASE INHIBITORS” (Xavier University of Louisiana, priority 2018, published 2023)
Entries after “also recorded” stand apart in the source; their conditions may differ.

How the values were obtained:
EGFR residue Y1068 = molecular target: T1, EGFR residue Y1068 (Homo sapiens, UniProt P00533); experiment: Western blot of EGFR transphosphorylation; assay type: cell-based; conditions: 10 μM, 2 h; MCF7/pcDNA, MCF7/HER2, MCF7/HER2Δ16
T1 construct: endogenous in cells; host or cells: MCF-7/pcDNA, MCF-7/HER2, MCF-7/HER2Δ16
Excerpt: (§1) HER2 is a member of the erbB family of tyrosine kinases, which is comprised of four partial homologous transmembrane receptors: EGFR/HER1 (erbB1), HER2 (erbB2/neu), HER3 (erbB3), and HER4 (erbB4). […] Ligand binding induces homo- or hetero-dimerization through disulfide bond linkage, and leads to receptor activation and tyrosine auto-phosphorylation. HER2 is a preferred dimerization partner due to its high catalytic activity and forms potent heterodimers with EGFR and HER3. HER2, with its intrinsic kinase activity can transphosphorylate other members of the erbB family. HER2 and HERΔ16 are overexpressed in the breast cancer cell lines that have been used in this study, leading to the kinases being constitutively active. Upon dimerization, the constitutively active HER2 and HER2Δ16 receptors can transphosphorylate coexpressed EGFR. The levels of phosphorylated HER2 in the parental MCF-7 cell line were less, resulting in its lack of dimerization with EGFR and its transphosphorylation. Western blots were performed to determine the ability of the compounds to inhibit the activation of the HER2 receptor (FIG. 7). The total and phosphorylated protein were detected upon treatment of each of the cells lines with the compounds 6, 7, 8a+8b, 9, 15, 25, 26, 27 and 28 (2-methyl-4,6-dinitro-1H-indene-1,3(2H)-dione) along with the positive control lapatinib at 10 μM concentration for 2 h. […] Compounds 26 and 28 from FIG. 5 were used as negative controls.

HER2 residue Y1248 = experiment: Western blot of HER2 autophosphorylation; assay type: cell-based; conditions: 10 μM, 2 h; MCF7/pcDNA, MCF7/HER2, MCF7/HER2Δ16
Excerpt: as §1

[1] = tested on: MCF7 breast cancer cell lines expressing HER2, HER2Δ16 and empty vector; experiment: High-throughput cell viability screen at 10 μM (CellTiter-Glo); assay type: cell-based; conditions: for suppression of cell viability / inhibition in the high-throughput assay: 48 h
Protocol: (§2) The antagonistic activities of the compounds were tested in an estrogen receptor positive (ER+) breast cancer cell line, MCF7 breast cancer cell lines expressing HER2, HER2Δ16 and empty vector. Lapatinib was used as the positive control. The cells were treated with the compounds at 10 μM concentration for 48 h. After treatment, cell viability was tested using the CellTiter-Glo Assay (Promega).

MCF-7/pcDNA = experiment: CellTiter-Glo cell viability, IC50; assay type: cell-based; conditions: Homo sapiens, MCF7, 48 h treatment
Protocol: as §2, with “(Promega). […] The […] best compounds 7, 9, the mixture of 8a+8b, 25 and 27 were then taken up for further studies.” for “(Promega).”

MCF-7/HER2 = experiment: CellTiter-Glo cell viability, IC50; assay type: cell-based; conditions: Homo sapiens, MCF7, 48 h treatment
Protocol: as §2, with “(Promega). […] The […] best compounds 7, 9, the mixture of 8a+8b, 25 and 27 were then taken up for further studies.” for “(Promega).”

MCF-7/HER2Δ16 = experiment: CellTiter-Glo cell viability, IC50; assay type: cell-based; conditions: Homo sapiens, MCF7, 48 h treatment, read-out: IC50 MCF-7/HER2D16
Protocol: as §2, with “(Promega). […] The […] best compounds 7, 9, the mixture of 8a+8b, 25 and 27 were then taken up for further studies.” for “(Promega).”

[2] = tested on: BT20, MDA-MB-468, MDA-MB-231, SKBR3, BT474, SUM 190PT and SUM 225CWN; experiment: Growth inhibition of a panel of breast cancer cell lines; assay type: cell-based; conditions: triple negative, trastuzumab sensitive and trastuzumab resistant cell lines; read-out: IC50 growth inhibition, range over breast cancer cell line panel
Excerpt: (§3) Compound 7 was taken up for further analysis of its ability to inhibit the growth of a panel of breast cancer cell lines of varied types. The panel included the triple negative cell lines BT20, MDA-MB-468 and MDA-MB-231, the trastuzumab sensitive cell lines SKBR3 and BT474, and the trastuzumab resistant cell lines SUM 190PT and SUM 225CWN (FIG. 9).

MDA-MB-231 = experiment: as above; assay type: cell-based
Excerpt: as §3

[3] = tested on: I kappa B kinase B/E (IKK B/E); experiment: Cross kinase panel high-throughput assay; assay type: biochemical; conditions: 10 μM
Protocol: (§4) Compound 7 was then subjected to a cross kinase panel high-throughput assay at 10 μM concentration, at Life Technologies, to determine the selectivity of kinase inhibition (FIG. 10). A panel of 120 disease relevant kinases (available with Life Technologies) were studied. 11 kinases were inhibited at 80% or more-protein kinase B 1/2 (also known as AKT1/2), Aurora kinases A/B (AurK A/B), checkpoint kinase 2 (CHEK2), feline sarcoma kinase (FES), fibroblast growth factor 1 (FGFR1), I kappa B kinase B/E (IKK B/E), mitogen activated protein kinase kinase 1 (MAP2K1), mitogen activated protein kinase kinase kinase 8 (MAP3K8), Never in Mitosis (NIMA) related kinase 2 (NEK2), polo-like kinase 1/3 (PLK1/3), serum/glucocorticoid regulated kinase 1 (SGK1) and TEK tyrosine kinase. All these kinases except for CHEK2 are reported to have tumorigenic roles in breast cancer.

[4] = molecular target: feline sarcoma kinase (FES) (Homo sapiens, UniProt P07332); experiment: Cross kinase panel high-throughput assay; assay type: biochemical
Protocol: as §4

[5] = molecular target: mitogen activated protein kinase kinase kinase 8 (MAP3K8) (Homo sapiens, UniProt P41279); experiment: Cross kinase panel high-throughput assay; assay type: biochemical
Protocol: as §4

[6] = tested on: Aurora kinases A/B (AurK A/B); experiment: Cross kinase panel high-throughput assay; assay type: biochemical; conditions: 10 μM
Protocol: as §4

[7] = molecular target: fibroblast growth factor 1 (FGFR1) (Homo sapiens, UniProt P11362); experiment: Cross kinase panel high-throughput assay; assay type: biochemical
Protocol: as §4

[8] = molecular target: T2, serum/glucocorticoid regulated kinase 1 (SGK1) (Homo sapiens, UniProt O00141); experiment: Cross kinase panel high-throughput assay; assay type: biochemical
T2 sequence (O00141 1-431): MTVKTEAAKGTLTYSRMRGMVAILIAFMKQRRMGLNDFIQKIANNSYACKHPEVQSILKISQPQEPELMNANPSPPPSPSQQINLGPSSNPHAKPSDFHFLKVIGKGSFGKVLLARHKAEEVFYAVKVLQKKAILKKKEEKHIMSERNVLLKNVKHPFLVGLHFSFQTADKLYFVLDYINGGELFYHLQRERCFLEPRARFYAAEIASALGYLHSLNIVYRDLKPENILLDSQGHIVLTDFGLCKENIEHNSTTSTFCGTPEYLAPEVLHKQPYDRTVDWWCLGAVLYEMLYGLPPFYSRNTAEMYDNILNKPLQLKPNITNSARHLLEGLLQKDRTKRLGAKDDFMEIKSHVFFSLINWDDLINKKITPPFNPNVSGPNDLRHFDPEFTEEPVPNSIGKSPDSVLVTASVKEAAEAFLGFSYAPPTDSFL
Protocol: as §4

[9] = molecular target: mitogen activated protein kinase kinase 1 (MAP2K1) (Homo sapiens, UniProt Q02750); experiment: Cross kinase panel high-throughput assay; assay type: biochemical
Protocol: as §4

[10] = tested on: protein kinase B 1/2 (AKT1/2); experiment: Cross kinase panel high-throughput assay; assay type: biochemical; conditions: 10 μM
Protocol: as §4

TEK tyrosine kinase = TEK tyrosine kinase (Homo sapiens, UniProt Q02763); experiment: Cross kinase panel high-throughput assay; assay type: biochemical
Protocol: as §4

[11] = molecular target: T3, Never in Mitosis (NIMA) related kinase 2 (NEK2) (Homo sapiens, UniProt P51955); experiment: Cross kinase panel high-throughput assay; assay type: biochemical
T3 sequence (P51955 1-445): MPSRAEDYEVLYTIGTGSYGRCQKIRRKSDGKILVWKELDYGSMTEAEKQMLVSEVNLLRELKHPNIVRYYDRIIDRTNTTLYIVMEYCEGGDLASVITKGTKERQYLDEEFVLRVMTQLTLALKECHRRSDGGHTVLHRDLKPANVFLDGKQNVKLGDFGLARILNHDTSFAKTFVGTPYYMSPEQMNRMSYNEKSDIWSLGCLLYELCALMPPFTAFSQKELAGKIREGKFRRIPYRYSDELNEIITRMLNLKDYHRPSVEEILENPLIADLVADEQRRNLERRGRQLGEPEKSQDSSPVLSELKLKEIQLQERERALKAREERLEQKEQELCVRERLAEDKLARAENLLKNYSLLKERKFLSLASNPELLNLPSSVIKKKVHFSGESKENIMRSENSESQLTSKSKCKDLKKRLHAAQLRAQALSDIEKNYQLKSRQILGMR
Protocol: as §4

[12] = tested on: polo-like kinase 1/3 (PLK1/3); experiment: Cross kinase panel high-throughput assay; assay type: biochemical; conditions: 10 μM
Protocol: as §4

[13] = molecular target: checkpoint kinase 2 (CHEK2) (Homo sapiens, UniProt O96017); experiment: Cross kinase panel high-throughput assay; assay type: biochemical
Protocol: as §4

T1 sequence (P00533 25-1210): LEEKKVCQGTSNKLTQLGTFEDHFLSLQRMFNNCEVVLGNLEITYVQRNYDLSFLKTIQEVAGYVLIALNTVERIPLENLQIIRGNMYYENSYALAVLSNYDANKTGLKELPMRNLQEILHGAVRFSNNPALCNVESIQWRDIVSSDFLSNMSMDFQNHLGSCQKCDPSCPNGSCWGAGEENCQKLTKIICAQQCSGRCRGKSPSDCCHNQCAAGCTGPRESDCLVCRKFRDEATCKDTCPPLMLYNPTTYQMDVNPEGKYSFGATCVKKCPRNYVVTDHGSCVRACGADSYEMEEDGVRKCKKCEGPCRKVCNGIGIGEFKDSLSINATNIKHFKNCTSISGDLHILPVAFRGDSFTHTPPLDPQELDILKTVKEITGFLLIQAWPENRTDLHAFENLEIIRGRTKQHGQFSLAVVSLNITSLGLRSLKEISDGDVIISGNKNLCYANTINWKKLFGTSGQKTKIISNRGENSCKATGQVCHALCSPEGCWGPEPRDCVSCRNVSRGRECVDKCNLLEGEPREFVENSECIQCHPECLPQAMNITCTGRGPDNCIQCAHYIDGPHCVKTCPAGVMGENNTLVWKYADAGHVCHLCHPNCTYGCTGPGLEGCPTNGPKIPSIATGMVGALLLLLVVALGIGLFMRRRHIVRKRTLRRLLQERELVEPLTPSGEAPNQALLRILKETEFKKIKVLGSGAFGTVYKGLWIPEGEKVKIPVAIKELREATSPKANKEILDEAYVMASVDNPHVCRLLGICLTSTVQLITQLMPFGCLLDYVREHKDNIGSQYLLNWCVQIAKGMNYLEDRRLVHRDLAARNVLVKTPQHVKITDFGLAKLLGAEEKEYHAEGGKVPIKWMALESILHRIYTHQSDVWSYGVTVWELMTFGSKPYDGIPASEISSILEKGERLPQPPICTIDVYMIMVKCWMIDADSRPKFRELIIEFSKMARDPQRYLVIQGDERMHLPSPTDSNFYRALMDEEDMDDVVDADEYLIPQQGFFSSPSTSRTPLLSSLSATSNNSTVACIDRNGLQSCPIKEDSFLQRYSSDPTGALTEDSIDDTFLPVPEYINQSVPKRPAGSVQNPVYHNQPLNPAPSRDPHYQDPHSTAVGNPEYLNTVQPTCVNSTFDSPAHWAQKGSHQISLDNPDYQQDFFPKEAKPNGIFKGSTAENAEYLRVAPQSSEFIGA
Sequence of mitogen activated protein kinase kinase 1 (MAP2K1) (Q02750 whole entry): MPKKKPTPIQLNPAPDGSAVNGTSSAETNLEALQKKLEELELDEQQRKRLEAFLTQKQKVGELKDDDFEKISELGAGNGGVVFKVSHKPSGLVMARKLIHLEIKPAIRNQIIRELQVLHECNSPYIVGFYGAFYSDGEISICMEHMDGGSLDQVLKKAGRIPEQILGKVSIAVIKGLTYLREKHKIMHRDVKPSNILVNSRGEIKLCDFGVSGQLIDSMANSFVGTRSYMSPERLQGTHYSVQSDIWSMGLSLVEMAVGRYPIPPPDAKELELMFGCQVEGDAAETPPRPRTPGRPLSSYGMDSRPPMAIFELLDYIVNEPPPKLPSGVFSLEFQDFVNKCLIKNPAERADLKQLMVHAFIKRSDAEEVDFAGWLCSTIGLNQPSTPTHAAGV
Sequence of checkpoint kinase 2 (CHEK2) (O96017 whole entry): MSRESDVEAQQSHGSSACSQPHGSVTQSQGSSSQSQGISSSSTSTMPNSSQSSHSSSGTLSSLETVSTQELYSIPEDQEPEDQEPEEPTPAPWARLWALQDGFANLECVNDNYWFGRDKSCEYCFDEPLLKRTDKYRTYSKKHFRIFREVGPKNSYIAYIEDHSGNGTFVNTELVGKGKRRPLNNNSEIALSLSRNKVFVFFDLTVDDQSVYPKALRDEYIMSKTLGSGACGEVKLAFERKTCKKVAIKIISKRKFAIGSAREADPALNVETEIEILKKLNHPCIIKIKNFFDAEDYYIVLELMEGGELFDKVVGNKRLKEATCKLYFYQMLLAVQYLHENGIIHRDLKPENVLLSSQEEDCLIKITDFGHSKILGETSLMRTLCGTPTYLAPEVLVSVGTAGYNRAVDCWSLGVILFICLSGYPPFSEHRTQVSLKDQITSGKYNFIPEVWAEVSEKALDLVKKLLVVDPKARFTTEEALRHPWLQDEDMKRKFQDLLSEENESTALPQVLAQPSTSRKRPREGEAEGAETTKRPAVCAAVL
Sequence of feline sarcoma kinase (FES) (P07332 whole entry): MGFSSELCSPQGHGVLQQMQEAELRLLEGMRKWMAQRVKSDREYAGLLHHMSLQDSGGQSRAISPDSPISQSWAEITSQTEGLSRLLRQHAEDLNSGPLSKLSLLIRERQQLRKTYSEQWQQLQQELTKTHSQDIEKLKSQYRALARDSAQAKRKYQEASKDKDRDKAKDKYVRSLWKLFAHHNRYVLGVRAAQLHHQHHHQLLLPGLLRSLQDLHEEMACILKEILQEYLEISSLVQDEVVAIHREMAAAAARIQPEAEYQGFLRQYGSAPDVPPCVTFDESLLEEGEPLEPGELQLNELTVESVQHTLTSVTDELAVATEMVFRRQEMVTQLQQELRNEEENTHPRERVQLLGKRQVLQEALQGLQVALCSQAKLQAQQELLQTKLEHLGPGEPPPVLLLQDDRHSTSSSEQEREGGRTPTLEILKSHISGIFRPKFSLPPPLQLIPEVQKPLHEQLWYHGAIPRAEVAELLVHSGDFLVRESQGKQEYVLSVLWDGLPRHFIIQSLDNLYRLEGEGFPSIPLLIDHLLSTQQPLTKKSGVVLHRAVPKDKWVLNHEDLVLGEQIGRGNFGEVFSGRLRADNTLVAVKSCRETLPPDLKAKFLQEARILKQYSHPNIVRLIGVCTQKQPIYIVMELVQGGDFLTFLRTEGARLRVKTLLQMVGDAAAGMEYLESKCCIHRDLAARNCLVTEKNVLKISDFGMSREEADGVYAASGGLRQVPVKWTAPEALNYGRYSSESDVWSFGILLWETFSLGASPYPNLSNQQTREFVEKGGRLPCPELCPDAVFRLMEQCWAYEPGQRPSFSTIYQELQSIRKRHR
Sequence of TEK tyrosine kinase (Q02763 23-1124): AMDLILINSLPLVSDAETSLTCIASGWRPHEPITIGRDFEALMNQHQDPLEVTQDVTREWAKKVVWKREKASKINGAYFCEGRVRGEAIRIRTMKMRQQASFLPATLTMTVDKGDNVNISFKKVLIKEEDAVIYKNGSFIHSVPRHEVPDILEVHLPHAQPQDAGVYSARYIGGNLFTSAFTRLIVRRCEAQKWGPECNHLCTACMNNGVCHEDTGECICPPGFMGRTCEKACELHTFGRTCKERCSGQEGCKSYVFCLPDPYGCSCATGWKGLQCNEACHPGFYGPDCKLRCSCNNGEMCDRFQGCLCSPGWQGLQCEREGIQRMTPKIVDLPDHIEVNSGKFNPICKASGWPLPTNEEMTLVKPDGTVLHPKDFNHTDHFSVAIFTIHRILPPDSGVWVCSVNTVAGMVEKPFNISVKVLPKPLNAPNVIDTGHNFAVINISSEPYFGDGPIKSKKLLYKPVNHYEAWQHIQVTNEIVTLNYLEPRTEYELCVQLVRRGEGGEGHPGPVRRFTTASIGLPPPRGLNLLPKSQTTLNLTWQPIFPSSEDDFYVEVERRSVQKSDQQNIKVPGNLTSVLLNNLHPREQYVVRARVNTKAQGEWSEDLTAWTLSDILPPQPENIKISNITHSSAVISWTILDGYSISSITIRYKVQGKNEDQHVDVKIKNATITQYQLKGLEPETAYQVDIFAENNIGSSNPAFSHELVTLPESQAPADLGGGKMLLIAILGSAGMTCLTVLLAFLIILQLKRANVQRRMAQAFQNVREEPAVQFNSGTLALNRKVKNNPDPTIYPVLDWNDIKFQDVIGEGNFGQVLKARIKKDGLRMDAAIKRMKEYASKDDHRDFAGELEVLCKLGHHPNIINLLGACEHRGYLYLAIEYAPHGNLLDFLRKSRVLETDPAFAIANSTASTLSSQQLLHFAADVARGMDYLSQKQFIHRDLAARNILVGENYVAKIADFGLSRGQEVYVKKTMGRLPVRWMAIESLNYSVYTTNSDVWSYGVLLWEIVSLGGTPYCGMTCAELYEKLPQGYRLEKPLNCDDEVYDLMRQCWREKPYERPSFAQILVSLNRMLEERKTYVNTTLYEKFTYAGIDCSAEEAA
Sequence of mitogen activated protein kinase kinase kinase 8 (MAP3K8) (P41279 whole entry): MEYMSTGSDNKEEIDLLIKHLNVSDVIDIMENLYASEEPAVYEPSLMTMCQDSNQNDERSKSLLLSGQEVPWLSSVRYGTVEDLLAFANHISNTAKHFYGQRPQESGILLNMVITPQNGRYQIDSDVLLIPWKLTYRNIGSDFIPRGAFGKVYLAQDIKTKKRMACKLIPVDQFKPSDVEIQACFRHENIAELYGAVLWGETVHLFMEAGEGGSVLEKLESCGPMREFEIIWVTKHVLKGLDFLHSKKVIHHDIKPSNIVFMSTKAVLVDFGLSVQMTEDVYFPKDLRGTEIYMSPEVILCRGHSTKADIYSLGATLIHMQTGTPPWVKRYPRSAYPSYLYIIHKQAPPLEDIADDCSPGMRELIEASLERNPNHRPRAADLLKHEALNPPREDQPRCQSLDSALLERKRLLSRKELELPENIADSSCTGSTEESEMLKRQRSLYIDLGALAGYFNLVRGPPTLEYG

CC1=CC(=O)c2c(O)ccc(O)c2C1=O [Compound 6, 5,8-dihydroxy-2-methylnaphthalene-1,4-dione]
inhibition of phosphorylation at EGFR-Y1068 (western blot) (EGFR residue Y1068): decreased; also recorded: inhibit the phosphorylation | inhibition of autophosphorylation at HER2-Y1248 (western blot) (HER2 residue Y1248): significantly decreased HER2 activating phosphorylation to the same extent as lapatinib; also recorded: inhibit the phosphorylation

O=C1C=CC(=O)c2c(O)cc(CBr)cc21 [Compound 26, 5-hydroxy-7-bromomethylnaphthalene-1,4-dione]
suppression of cell viability / inhibition in the high-throughput assay [1]: showed notable inhibition | inhibition of autophosphorylation at HER2-Y1248 (western blot) (HER2 residue Y1248): did not show such an effect on auto-phosphorylation; also recorded: did not show notable inhibition of phosphorylation

Cc1cc(O)c2c(c1)C(=O)C=CC2=O [Compound 25, 5-hydroxy-7-methylnaphthalene-1,4-dione]
suppression of cell viability / inhibition in the high-throughput assay [1]: showed notable inhibition | IC50 (MCF-7/pcDNA): 30.9 µM | inhibition of autophosphorylation at HER2-Y1248 (western blot) (HER2 residue Y1248): did not show such an effect on auto-phosphorylation; also recorded: did not show notable inhibition of phosphorylation

COc1cc(C)cc2c1C(=O)C=CC2=O [Compound 27, 5-methoxy-7-methylnaphthalene-1,4-dione]
suppression of cell viability / inhibition in the high-throughput assay [1]: showed notable inhibition | IC50 (MCF-7/pcDNA): 4.94 µM | IC50 (MCF-7/HER2): 3.18 µM | IC50 (MCF-7/HER2Δ16): 7.3 µM | inhibition of autophosphorylation at HER2-Y1248 (western blot) (HER2 residue Y1248): did not show such an effect on auto-phosphorylation; also recorded: did not show notable inhibition of phosphorylation

O=C1C=C(CBr)C(=O)c2c(O)ccc(O)c21 [Compound 9, 2-(bromomethyl)-5,8-dihydroxynaphthalene-1,4-dione]
IC50 (MCF-7/pcDNA): 1.66 µM | IC50 (MCF-7/HER2): 1.78 µM | IC50 (MCF-7/HER2Δ16): 3.61 µM | inhibition of phosphorylation at EGFR-Y1068 (western blot) (EGFR residue Y1068): decreased; also recorded: inhibit the phosphorylation | inhibition of autophosphorylation at HER2-Y1248 (western blot) (HER2 residue Y1248): significantly decreased HER2 activating phosphorylation to the same extent as lapatinib; also recorded: inhibit the phosphorylation

Cc1cc(O)c2c(c1O)C(=O)C=CC2=O [Compound 7, 5,8-dihydroxy-6-methylnaphthalene-1,4-dione]
IC50 (MCF-7/pcDNA): 0.32 µM | IC50 (MCF-7/HER2): 0.29 µM | IC50 (MCF-7/HER2Δ16): 0.51 µM | inhibition of phosphorylation at EGFR-Y1068 (western blot) (EGFR residue Y1068): decreased; also recorded: inhibit the phosphorylation | IC50 [2]: 0.123 to 2.92 µM | fold decrease in potency versus the other cell lines (MDA-MB-231): 3-4 fold | kinase inhibition IKK B/E [3]: ≥ 80% | inhibition at 10 µM [4]: ≥ 80% | inhibition at 10 µM [5]: ≥ 80% | kinase inhibition AurK A/B [6]: ≥ 80% | inhibition at 10 µM [7]: ≥ 80% | inhibition at 10 µM [8]: ≥ 80% | inhibition at 10 µM [9]: ≥ 80% | kinase inhibition AKT1/2 [10]: ≥ 80% | inhibition at 10 µM (TEK tyrosine kinase): ≥ 80% | inhibition at 10 µM [11]: ≥ 80% | kinase inhibition PLK1/3 [12]: ≥ 80% | inhibition at 10 µM [13]: ≥ 80% | inhibition of autophosphorylation at HER2-Y1248 (western blot) (HER2 residue Y1248): significantly decreased HER2 activating phosphorylation to the same extent as lapatinib; also recorded: inhibit the phosphorylation

Cc1ccc(O)c2c1C(=O)C=CC2=O [Compound 22, 5-hydroxy-8-methylnaphthalene-1,4-dione]
IC50 (MCF-7/pcDNA): 2.93 µM | IC50 (MCF-7/HER2): 4.61 µM | IC50 (MCF-7/HER2Δ16): 9.39 µM

CC1C(=O)c2cc([N+](=O)[O-])cc([N+](=O)[O-])c2C1=O (stereo not shown) [Compound 28, 2-methyl-4,6-dinitro-1H-indene-1,3(2H)-dione]
suppression of cell viability / inhibition in the high-throughput assay [1]: did not show notable growth inhibition | inhibition of phosphorylation at EGFR-Y1068 (western blot) (EGFR residue Y1068): shows significant phosphorylation | inhibition of autophosphorylation at HER2-Y1248 (western blot) (HER2 residue Y1248): shows significant phosphorylation

CS(=O)(=O)CCNCc1ccc(-c2ccc3ncnc(Nc4ccc(OCc5cccc(F)c5)c(Cl)c4)c3c2)o1 [Lapatinib, reference compound]
viability at 10 µM ([1]; Homo sapiens, MCF7, 48 h): < 70% | IC50 (MCF-7/pcDNA): 15.7 µM | IC50 (MCF-7/HER2): 15.8 µM | IC50 (MCF-7/HER2Δ16): 19.2 µM
